{"source": "patent US10017506B2", "about": "“ATX modulating agents” (BIOGEN MA INC., priority 2012, dated 2018)"}
{"molecular_target": "T1, Human ATX protein (Homo sapiens, UniProt Q13822)", "T1 construct": "made in house", "assay": "ATX biochemical FRET assay with FS-3 substrate", "details": "FRET substrate FS-3 2 μM, ATX 1.0 μg/mL, 30 minutes pre-incubation, 2 hours at room temperature; read-out: IC50", "source_text": "(§1) ATX (Autotaxin) is a 125 KDa glycoprotein with lysophospholipase D (LPLD) activity that generates the bioactive lipid lysophosphatidic acid (LPA) from lysophosphatidylcholine (LPC). The ATX biochemical assay utilizes a FRET (fluorescence resonance energy transfer) technology platform. The fluorescence signal of FRET substrate FS-3 is quenched due to intra-molecular FRET of a fluorophore to a non-fluorescing quencher (Ferguson, C. G., et al., Org Lett. 2006 May 11; 8(10): 2023-2026, which is incorporated by reference in its entirety). ATX catalyzes the hydrolysis of the substrate which separates the dabsyl quencher from the fluorescein reporter, which becomes fluorescent. The reaction is monitored by a SpectraMax M5 (Molecular Devices, Sunnyvale, Calif.) with at excitation wavelength 485 nm and emission wavelength […].\n(§2) Fatty acid free-BSA (Sigma A8806): 10 mg/mL in H2O, stored at 4° C.\n(§3) 2×ATX assay buffer: 100 mM Tris, 280 mM NaCl, 10 mM KCl, 2 mM CaCl2, 2 mM MgCl2, pH 7.4.\n(§4) Human ATX protein: expressed and purified in house. Stored at −80° C.\n(§5) Substrate FS-3 (Echelon, L-2000): 100 μg in 77.74 μL H2O (1 mM stock), stored at −20° C.\n(§6) 384-well flat bottom plates—Corning #3575.\n(§7) Compound dilution—All compounds were provided at 10 mM in 100% DMSO. In the first well, 2 μL of 10 mM compound was added to 78 μL of DMSO (1:40 dilution). In subsequent wells 3-fold dilution (total 10 dilutions) were performed.\n(§8) 1×ATX assay buffer was made up with a final concentration of 1 mg/mL fatty acid free-BSA using 2×ATX assay buffer, 10 mg/ml fatty acid free-BSA and ddH2O.\n(§9) ATX protein was diluted with 1×ATX assay buffer to a concentration of 1.32 μg/mL (1.32×). 38 μL was added per well to the assay plate. The final concentration of ATX in the reaction as 1.0 μg/mL.\n(§10) 2 μL per well of compounds was transferred to provide the desired concentration. The plate was centrifuged, then incubated at room temperature for 30 minutes on the shaker.\n(§11) Then, 10 μL was added per well to the assay plate. […] The plate was centrifuged. The plate was kept shaking at room temperature for 2 hours. Because FS-3 substrate is light sensitive, plates were kept covered and protected from light.\n(§12) Fluorescence was measured using SpectraMax M5 (excitation at 485 nm/emission at 538 nm, top read).", "units": {"IC50": "nM"}}
{"smiles": "CC(N[C@H]1C[C@@H](C(=O)O)C1(C)C)c1ccc2ccc(O[C@H]3CC[C@@H](C(F)(F)F)CC3)c(C(F)(F)F)c2c1", "note": "(stereo partly drawn) [Example 120, (1R,3S)-2,2-dimethyl-3-((1-(8-(trifluoromethyl)-7-((cis-4-(trifluoromethyl)cyclohexyl)oxy)naphthalen-2-yl)ethyl)amino)cyclobutanecarboxylic acid]", "IC50": "≤ 100"}
{"smiles": "CCC(N[C@H]1CC[C@@H](C(=O)O)CC1)c1ccc2ccc(O[C@H]3CC[C@@H](C)CC3)c(C(F)(F)F)c2c1", "note": "(stereo partly drawn) [Example 146, cis-4-((1-(7-((cis-4-methylcyclohexyl)oxy)-8-(trifluoromethyl)naphthalen-2-yl)propyl)amino)cyclohexanecarboxylic acid]", "IC50": "≤ 250"}
{"smiles": "CC(N[C@@H]1C[C@H](C(=O)O)C1(C)C)c1ccc2ccc(O[C@H]3CC[C@@H](C)CC3)c(C(F)(F)F)c2c1", "note": "(stereo partly drawn) [Example 112, (1S,3R)-2,2-dimethyl-3-((1-(7-((cis-4-methylcyclohexyl)oxy)-8-(trifluoromethyl)naphthalen-2-yl)ethyl)amino)cyclobutanecarboxylic acid]", "IC50": "≤ 100"}
{"smiles": "CC[C@H]1CC[C@@H](Oc2ccc3ccc(C(C)N4CCC[C@H](CC(=O)O)C4)cc3c2C(F)(F)F)CC1", "note": "(stereo partly drawn) [Example 58, 2-((3R)-1-(1-(7-((cis-4-ethylcyclohexyl)oxy)-8-(trifluoromethyl)naphthalen-2-yl)ethyl)piperidin-3-yl)acetic acid]", "IC50": "≤ 250"}
{"smiles": "CC(C)(C)[C@H]1CC[C@H](Nc2cc3cc(C(=O)N[C@H]4CC[C@@H](C(=O)O)CC4)ccc3cn2)CC1", "note": "[Example 154, cis-4-(3-((trans-4-(tert-butyl)cyclohexyl)amino)isoquinoline-6-carboxamido)cyclohexane carboxylic acid]", "IC50": "≤ 100"}
{"smiles": "CCC(N[C@H]1CC[C@@H](C(=O)O)CC1)c1ccc2ccc(O[C@H]3CC[C@@H](C(F)(F)F)CC3)c(C(F)(F)F)c2c1", "note": "(stereo partly drawn) [Example 147, cis-4-((1-(8-(trifluoromethyl)-7-((cis-4-(trifluoromethyl)cyclohexyl)oxy)naphthalen-2-yl)propyl)amino)cyclohexanecarboxylic acid]", "IC50": "≤ 100"}
{"molecular_target": "T1, Human ATX protein", "assay": "ATX biochemical FRET assay with FS-3 substrate", "details": "IC50, FRET substrate FS-3 2 μM, ATX 1.0 μg/mL, 30 minutes pre-incubation, 2 hours at room temperature", "source_text": "as §1, §2, §3, §4, §5, §6, §7, §8, §9, §10, §11, §12", "units": {"IC50": "nM"}}
{"smiles": "CC[C@H]1CC[C@@H](Oc2ccc3ccc(CN4C5CCCC4CC(C(=O)O)C5)cc3c2C(F)(F)F)CC1", "note": "(stereo partly drawn) [Example 52, 9-((7-((cis-4-ethylcyclohexyl)oxy)-8-(trifluoromethyl)naphthalen-2-yl)methyl)-9-azabicyclo[3.3.1]nonane-3-carboxylic acid]", "IC50": "≤ 100"}
{"smiles": "CCC(c1ccc2ccc(O[C@H]3CC[C@@H](C(F)(F)F)CC3)c(C#N)c2c1)N1C2CCCC1CC(C(=O)O)C2", "note": "(stereo partly drawn) [Example 41, 9-(1-(8-cyano-7-((cis-4-(trifluoromethyl)cyclohexyl)oxy)naphthalen-2-yl)propyl)-9-azabicyclo[3.3.1]nonane-3-carboxylic acid]", "IC50": "≤ 250"}
{"smiles": "CC[C@H]1CC[C@@H](Oc2ccc3ccc(C(C)N4C5CCCC4CC(C(=O)O)C5)cc3c2Cl)CC1", "note": "(stereo partly drawn) [Example 66, 9-(1-(8-chloro-7-((cis-4-ethylcyclohexyl)oxy)naphthalen-2-yl)ethyl)-9-azabicyclo[3.3.1]nonane-3-carboxylic acid]", "IC50": "≤ 250"}
{"smiles": "CCC(c1ccc2ccc(O[C@H]3CC[C@@H](C(F)(F)F)CC3)c(C#N)c2c1)N1C2CCC1CC(C(=O)O)C2", "note": "(stereo partly drawn) [Example 40, 8-(1-(8-cyano-7-((cis-4-(trifluoromethyl)cyclohexyl)oxy)naphthalen-2-yl)propyl)-8-azabicyclo[3.2.1]octane-3-carboxylic acid]", "IC50": "≤ 500"}
{"smiles": "O=C(O)C1CC2CCCC(C1)N2C(=O)c1ccc2ccc(O[C@H]3CC[C@@H](C(F)(F)F)CC3)c(C(F)(F)F)c2c1", "note": "(some centres unmarked) [Example 14, 9-[8-trifluoromethyl-7-(4-trifluoromethyl-cyclohexyloxy)-naphthalene-2-carbonyl]-9-aza-bicyclo[3.3.1]nonane-3-carboxylic acid]", "IC50": "≤ 100"}
